A short description of series [1]: Preliminary oral tolerability experiments in tumor-free mice. Format: in vivo. To be noted: 52.8 mg kg^−1 p.o. From the text: It is well known that COX-2 is involved in the paracrine signaling between immune cells, resulting in a pro-tumorigenic tumor microenvironment.[10,33] Consequently, we got interested in the impact of the Asa ligand on the anticancer activity of the drugs in vivo. Therefore, we chose immune-competent murine colon cancer CT26 allografts as test system, which were characterized by high COX-2 expression (Fig. S4 ^†). […] Thus, the experiment was stopped on day 19 due to a distinct drop in body weight in these animals. As Asa is clinically applied p.o., we tested the efficacy of OxAsaOAc and asplatin in an oral application setting. […] For the therapy experiment, the animals were treated with OxAsaOAc and asplatin for five subsequent days over two weeks. […] Consequently, we concluded that the drug doses reaching the tumor in these therapy settings were insufficient, which prompted us to aim for carrier systems with enhanced tumor-targeting properties.

In series [2] the test system is SW480. Kind of series: MTT assay, 72 h, SW480. Format: cell-based. To be noted: 72 h treatment, mean ± SD. The protocol: (§1) All cell cultures were grown at 37 °C in a humidified atmosphere containing 5% CO2. HCT116, RKO and HT-29 cells were cultured in McCoy's 5A Modified Media (Sigma-Aldrich, St. Louis, MO, USA) supplemented with 10% heat-inactivated fetal calf serum (FCS, PAA, Linz, Austria) and 2 mM glutamine (Sigma-Aldrich, St. Louis, MO, USA). The murine (Balb/c) colon cancer cell model CT26 (purchased from American Type Culture Collection, Manassas, VA, USA) were cultured in DMEM/F12 supplemented with 10% fetal calf serum (FCS). SW480 and Caco-2 cells were cultured in MEME media supplemented with 10% and 20% FCS, respectively. All cell culture media and reagents were purchased from Sigma-Aldrich Austria. […] The cells were regularly checked for Mycoplasma contamination.
(§2) Depending on their proliferation rate, cells were seeded at a density of 3500–5000 cells per well in 96-well microtiter plates and allowed to adhere overnight. […] Cell viability was determined using the 3-(4,5-dimethylthiazol-2-yl)-2,5-diphenyltetrazolium bromide (MTT) assay (EZ4U, Biomedia, Vienna, Austria) according to the manufacturer's recommendation. Depending on the metabolic capacity, the cell lines were incubated between one and three hours at 37 °C and subsequently absorbance was measured at 450 nm (620 nm as a reference) with a Tecan Reader infinite® M200Pro (Tecan Group Ltd, Switzerland). Data were analyzed using Graph Pad prism (version 8.0.1) by using the point-to-point function. […] Following, dose–response curves were calculated using the point-to-point function.

Series [3] relates to Caco-2. The series is described as follows: MTT assay, 72 h, Caco-2. Format: cell-based. To be noted: Caco-2, MTT, 72 h treatment, mean ± SD. The method, then:
as §1, §2

A short description of series [4]: Released salicylic acid in serum of mice after single i.v. administration (UHPLC-MS). Conditions: for Free salicylic acid in serum, share of administered dose: tumor-free Balb/c mice. The protocol:
After 10 min, 1 h and 24 h blood was collected via the facial vein. Serum was isolated by centrifugation at 900 g for 10 min for two times and stored at −80 °C. Platinum content was detected by ICP-MS measurements, using an Agilent 7800 (Agilent Technologies, Tokyo, Japan) equipped with an Agilent SPS 4 autosampler (Agilent Technologies, Tokyo, Japan) and a MicroMist nebulizer. The Agilent MassHunter software package (Workstation Software, Version C.01.04, 2018) was used for data evaluation. The ICP-MS operation parameters are given in Table S1. ^† Salicylic acid was extracted and detected as described above.

The test system of series [5] is HCT116. The series is described as follows: MTT assay, 72 h, HCT116. Format: cell-based. To be noted: 72 h treatment, mean ± SD. The method, then: as §1, §2
(Tetrazolium assays rely on reduction of a dye to a coloured formazan, in cell work by metabolically active cells.)

The nature of series [6]: Stability in aqueous buffer pH 7.4 (HPLC). To be noted: 1 mM, 250 mM phosphate buffer pH 7.4, 20 °C, 25 h, HPLC. The class given is physicochemical. The protocol: (§3) Phosphate buffer (250 mM, pH 7.4) containing 1 mM platinum compound was incubated at 20 °C, with and without the addition of 10 eq. L-ascorbic acid. […] A gradient of 5–95% over 5 minutes was used. To evaluate the current state of the reaction, the peak area of the parental complex was used.

For series [7], the system named is RKO. The series is described as follows: MTT assay, 72 h, RKO. The class given is cell-based. Conditions: 72 h treatment, mean ± SD. The method, then:
as §1, §2

In series [8] the test system is colorectal cancer cell line panel. The series is described as follows: MTT assays, 72 h, whole panel comparison. The class given is cell-based. Conditions: in most cell lines of the panel. The protocol:
All cell cultures were grown at 37 °C in a humidified atmosphere containing 5% CO2. HCT116, RKO and HT-29 cells were cultured in McCoy's 5A Modified Media (Sigma-Aldrich, St. Louis, MO, USA) supplemented with 10% heat-inactivated fetal calf serum (FCS, PAA, Linz, Austria) and 2 mM glutamine (Sigma-Aldrich, St. Louis, MO, USA). The murine (Balb/c) colon cancer cell model CT26 (purchased from American Type Culture Collection, Manassas, VA, USA) were cultured in DMEM/F12 supplemented with 10% fetal calf serum (FCS). SW480 and Caco-2 cells were cultured in MEME media supplemented with 10% and 20% FCS, respectively. All cell culture media and reagents were purchased from Sigma-Aldrich Austria. […]
Depending on their proliferation rate, cells were seeded at a density of 3500–5000 cells per well in 96-well microtiter plates and allowed to adhere overnight. […] Cell viability was determined using the 3-(4,5-dimethylthiazol-2-yl)-2,5-diphenyltetrazolium bromide (MTT) assay (EZ4U, Biomedia, Vienna, Austria) according to the manufacturer's recommendation. Depending on the metabolic capacity, the cell lines were incubated between one and three hours at 37 °C and subsequently absorbance was measured at 450 nm (620 nm as a reference) with a Tecan Reader infinite® M200Pro (Tecan Group Ltd, Switzerland). Data were analyzed using Graph Pad prism (version 8.0.1) by using the point-to-point function. […]

The target of series [9] is T1, albumin (Bos taurus, UniProt P02769).
T1 construct: Fetal calf serum was purchased from Sigma-Aldrich and buffered with 150 mM phosphate pH 7.4; tissue Sigma-Aldrich; host or cells: fetal calf serum
T1 sequence (P02769 25-607): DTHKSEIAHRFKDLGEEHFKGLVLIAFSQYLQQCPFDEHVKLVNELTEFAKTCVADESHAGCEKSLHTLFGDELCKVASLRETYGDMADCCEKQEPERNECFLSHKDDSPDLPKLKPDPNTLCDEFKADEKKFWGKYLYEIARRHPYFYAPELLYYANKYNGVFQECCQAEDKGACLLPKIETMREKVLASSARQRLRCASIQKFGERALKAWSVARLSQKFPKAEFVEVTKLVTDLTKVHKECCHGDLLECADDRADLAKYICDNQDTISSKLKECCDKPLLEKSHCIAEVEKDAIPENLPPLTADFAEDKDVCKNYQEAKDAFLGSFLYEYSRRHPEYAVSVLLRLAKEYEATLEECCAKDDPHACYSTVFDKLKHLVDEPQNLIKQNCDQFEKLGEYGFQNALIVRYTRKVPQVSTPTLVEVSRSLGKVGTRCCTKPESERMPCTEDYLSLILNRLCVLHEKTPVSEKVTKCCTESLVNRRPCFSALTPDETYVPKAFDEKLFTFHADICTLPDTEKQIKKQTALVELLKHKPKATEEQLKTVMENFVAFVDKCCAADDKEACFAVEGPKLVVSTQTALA
Kind of series: Albumin binding in fetal calf serum by SEC-ICP-MS. Format: in vitro ADME. Conditions: 100 μM in FCS (150 mM phosphate buffer, pH 7.4), 37 °C, up to 6 h. The method, then:
Fetal calf serum was purchased from Sigma-Aldrich and buffered with 150 mM phosphate pH 7.4 in order to guarantee a stable pH. The platinum(IV) complexes (5 mM) were dissolved in 150 mM phosphate buffer (pH 7.4) and diluted 1 : 50 in the buffered serum to obtain a final concentration of 100 μM. The samples were then incubated in the autosampler at 37 °C and analyzed every 1 h for 6 h. Between each sample a pure water blank was measured. For SEC-ICP-MS measurements an Agilent 1260 Infinity system coupled to an Agilent 7800 ICP-MS equipped with a dynamic reaction cell was used. Oxygen (purity 5.5, Messer Austria GmbH, Gumpoldskirchen, Austria) was used as reaction gas.
A general note: SEC sorts molecules by how far they enter the pores of the column.

In series [10] the test system is HT-29. The series is described as follows: MTT assay, 72 h, HT-29. The class given is cell-based. Conditions: for IC50: HT-29, MTT, 72 h treatment, mean ± SD. The method, then: as §1, §2
Series [11] deals with HCT116/OxR. The series is described as follows: MTT assay, 72 h, HCT116/OxR (oxaliplatin-resistant). Conditions: 72 h treatment, mean ± SD. The class given is cell-based. The method, then:
as §1, §2

Series [12] concerns CT26 (murine). The series is described as follows: MTT assay, 72 h, CT26. Conditions: 72 h treatment, mean ± SD. The class given is cell-based. The protocol:
as §1, §2

Series [13] can be described thus: Reduction kinetics with 10 eq. ascorbic acid (UHPLC). Format: physicochemical. To be noted: 1 mM, 250 mM phosphate buffer pH 7.4, 20 °C, 10 eq. ascorbic acid. The method, then: as §3
The test system of series [14] is CT26 allografts. The series is described as follows: Anticancer activity i.v. in CT26-bearing mice. Format: in vivo, Balb/c mice. Conditions: i.v., 4-times over 2 weeks, doses equimolar to 9 mg kg^−1 oxaliplatin. The method, then: (§4) All experiments were executed according to the regulation of the Ethics Committee for the Care and Use of Laboratory Animals at the Medical University Vienna. 8–12 weeks old BALB/c were kept in a pathogen-free environment with a 12 h light dark-cycle with ad libitum access to food and water. Every procedure was performed in a laminar airflow under sterile condition. Tumor growth and possible side effects of drug treatment were evaluated by daily recording the tumor size by caliper measurement according to the formula length × width^2/2 and parameters of the animal's overall health conditions.
(§5) CT26 cells (5 × 10^5 cells in 50 μl serum-free medium) were injected s.c. into the right flank of female BALB/c mice. […] Asa was treated orally using 50 mg kg^−1 in 5% DMSO/0.9% NaCl. Every day, the animals were monitored for the overall health conditions. Additionally, tumor size was measured. In case of a decreased body weight of ∼20% or ulcerated tumors, animals were sacrificed by cervical dislocation and tumors as well as organs were collected.

Series [15] has as its system CT26 allografts. The series is described as follows: Oral anticancer activity in CT26 allografts. The class given is in vivo, Balb/c mice. Conditions: OxAsaOAc 52.8 mg kg^−1 p.o., five subsequent days over two weeks. The protocol:
It is well known that COX-2 is involved in the paracrine signaling between immune cells, resulting in a pro-tumorigenic tumor microenvironment.[10,33] Consequently, we got interested in the impact of the Asa ligand on the anticancer activity of the drugs in vivo. […] As Asa is clinically applied p.o., we tested the efficacy of OxAsaOAc and asplatin in an oral application setting. […] For the therapy experiment, the animals were treated with OxAsaOAc and asplatin for five subsequent days over two weeks.
as §4

In series [16] the test system is CT26 allografts. Also on record: method as in not given. To be noted: reported MTD; ref not given; cited from earlier work.
Series [17] concerns CT26 allografts. The class given is in vivo. Conditions: oxaliplatin 9 mg kg^−1 i.v. The protocol: as §4, §5

The structures appear in SMILES notation.

What is called IC50 is the point on the concentration scale where inhibition reaches its midpoint. Low readings indicate greater potency, high ones weaker potency.

Consider `CC(=O)Oc1ccccc1C(=O)[O][Pt-2]12([O]C(C)=O)([NH2+][C@@H]3CCCC[C@H]3[NH2+]1)[O]C(=O)C(=O)[O]2` [OxAsaOAc, (OC-6-44)-acetato(2-acetoxybenzoato)[(1R,2R)-1,2-cyclohexanediamino]oxalatoplatinum(IV)], for which the Tolerability entry in series [1] is given as “well tolerable”. The IC50 in series [2] was determined as 11.2 ± 1.3 µM; in series [3], 17.9 ± 2.1 µM; in series [5] it was 9.9 ± 1.5 µM; in [7], 4300 ± 400 nM; in series [10] it was 32.7 ± 5.5 µM; in series [11], 42.8 ± 4.3 µM. Further, the concentration for half-maximal inhibition (IC50) in series [12] stood at 12.8 ± 0.8 µM. In addition, the “Free salicylic acid in serum, share of administered dose” value in series [4] (10 min after single i.v. dose equimolar to 9 mg kg^−1 oxaliplatin) and in series [4] (1 h after single i.v. dose equimolar to 9 mg kg^−1 oxaliplatin) was below 5 mol% throughout. The “Salicylic acid level in serum” value in series [4] (24 h after single i.v. dose equimolar to 9 mg kg^−1 oxaliplatin, below LOD) is below 3 µM. For the same compound, in [6], the “Stability in aqueous solution” value was “high stability”. In addition, the “Fold more active than Ox(OAc)2” value in [8] is on record as “about 2 fold”. Further, in series [9], the “Binding to albumin (or any other protein)” value is below 5%. For the same compound, in [10] (HT29 cells), the “Fold higher activity than Ox(OAc)2” value amounted to 4 fold. In addition, in series [13] (6 h), the “Intact complex after 6 h” value is reported as 92%. Further, in series [13] (24 h), the “Intact complex after 24 h” value is on record as 53%. Besides, the “Tolerability (body weight)” value in series [14] is given as “well tolerated”. For the same compound, in [14] (CT26), the “Anticancer activity (tumor growth, overall survival)” value is “significant impact on both tumor growth as well as overall survival”. Moreover, the “Impact on tumor growth” value in [15] is “none of the drugs had any impact on tumor growth”.

In the case of `O=C1[O][Pt]2([NH][C@@H]3CCCC[C@H]3[NH]2)[O]C1=O` [Oxaliplatin, oxaliplatin], the 50% inhibitory concentration (IC50) in series [2] worked out at 1 ± 0.2 µM; in series [5], 0.8 ± 0.1 µM; in series [7] it was 400 ± 40 nM; in series [10] it was 5.3 ± 1.2 µM; in series [11], 27.8 ± 5.2 µM; in [12], 1.8 ± 0.2 µM. Moreover, the MTD in series [16] was 9 mg/kg. For the same compound, the “Response of tumor model (tumor growth)” value in series [17] was “responsiveness”.

Values taken from publication PMC10334471, “Tumor-targeted dual-action NSAID-platinum(IV) anticancer prodrugs” (Inorganic Chemistry Frontiers, 2023).
